In patent publication US10980769B2, “Tiglien-3-one derivatives” (QBIOTICS PTY LTD, priority 2005, dated 2021):
Entries after “also recorded” stand apart in the source; their conditions may differ.

Tests used:
Haemonchus contortus = test: NemaTOX (Ne) anthelmintic larval development bioassay
Protocol: NemaTOX (alternatively referred to herein as Ne) is an anthelmintic bioassay, applicable to all parasitic nematodes with free-living life cycle stages, and can be used as a screen to detect activity and define the species spectrum of compounds against parasitic nematodes and examine the impact of pre-existing resistance to other anthelmintic classes on potency. Haemonchus contortus was utilised for this assay.
The effect on larval development was determined in this assay by the method described by Gill et al. (1995) Int. J. Parasitol. 25: 463-470. Briefly, in this assay nematode eggs were applied to the surface of an agar matrix containing the test sample and allowed to develop through to the L3, infective stage (6 days). At this time the stage of larval development reached and any unusual features (deformity, paralysis, toxicity) were noted by microscopic examination.

Bacillus subtilis = test: ProTOX (Bs) antibacterial bioassay; type: cell-based
Excerpt: ProTOX, (alternatively referred to herein as Bs) is an antibacterial bioassay, broadly applicable to most aerobic and anaerobic bacteria. The bioassay features a solid phase agar base into which the test compound has been incorporated together with a chromogen. As the bacteria multiply in the well, the chromogen is metabolised from blue in a two-step process to a colourless compound. Compounds with potent bactericidal activity inhibit bacterial metabolism of the chromogen while bacteriostatic compounds induce limited metabolism as indicated by an intermediate pink colour. ProTOX is broadly applicable to a range of gram-positive and gram-negative bacteria under aerobic and microaerophilic conditions. ProTOX assays were carried out using Bacillus subtilis.
Briefly, in ProTOX, the bacteria (24 hour broth) were applied to the surface of an agar matrix containing the test sample and allowed to grow for 48 hours. The assay was monitored at 24 and 48 hours and the active wells noted. Known antibiotics yield consistent colour transitions which are concentration and time dependent. These patterns provide an important guide to the early recognition of interesting characteristics.

Trichophyton rubrum = test: MycoTOX (Tr) antifungal bioassay; type: cell-based
Protocol: MycoTOX (alternatively referred to herein as Tr) is a non-chromogenic bioassay used to detect activity against filamentous fungal pathogens of plants and animals. The bioassay features a solid phase agar base into which the test compound has been incorporated. As the growth patterns of filamentous fungi are readily apparent on the agar surface the extent of mycelial growth, sporulation (if relevant to the species under investigation) and colour changes with maturation are measured.
MycoTOX, involves a fungus (spore suspension or mycelial fragments) being applied to the surface of an agar matrix containing the test chemical and allowed to grow for a period of up to a week (depending on species). The assay is monitored at two discrete times to identify key development phases in the life cycle (for example mycelial growth and extent of sporulation) and the active wells noted. The monitoring times are dependent on the fungal species under investigation.
The MycoTOX assays were carried out using Trichophyton rubrum. The MycoTOX test is alternatively referred to as Tr to indicate the use of Trichophyton rubrum.

[1] = system: NS1 murine myeloma cell line; test: CyTOX (Cy) chromogenic cytotoxicity bioassay; type: cell-based; details: for Cy LD99: weight of chemical in last well with activity, real value may be lower
Excerpt: CyTOX (alternatively referred to herein as Cy) is a microtitre plate bioassay use to identify potential antitumour actives. CyTOX is a chromogenic bioassay with broad application to a wide range of tumour and non-tumour cell lines.
CyTOX features a liquid media into which the test compound has been incorporated together with a novel chromogen. As the cells grow and divide the chromogen is metabolised from purple in a single step process to a colourless metabolite. CyTOX was undertaken using NS1 murine myeloma cell line as a guide to mammalian cell toxicity.
Briefly, in CyTOX the cells were applied to the media containing the test chemical and allowed to grow for 72 hours. The assay was monitored at 24, 48 and 72 hours and the active wells identified.

fly eggs = test: DipteraTOX fly development bioassay; parameters: key: A value of A in DipG, Dip P or Dip H represents very active; a value of P represents active; details: 250 μg per mL in agar
Protocol: DipteraTOX is referred to herein as DipG, DipP and DipH. DipG represents no grazing of larva. DipP represents no pupae formation and Dip H represents no hatching of flies. A value of A in DipG, Dip P or Dip H represents very active and a value of P represents active. In DipteraTox the fly eggs were applied to the surface of an agar matrix containing 250 μg per mL of the test chemical and allowed to hatch, develop and pupate for a period up of two weeks. The assay was monitored at two discrete times to determine the extent of grazing of the agar matrix at Week 1 and the presence of adult flies at Week 2.

Giardia spp. = test: TriTOX (Gi) anti-protozoan bioassay; type: cell-based
Protocol: is a microtitre plate based chromogenic bioassay for the screening of anti-protozoan activity of pathogenic, anaerobic/microaerophilic protozoans for example Giardia spp. and Trichomonas spp. The bioassays are run under anaerobic conditions and features species specific chromogens. The minimum inhibitory concentrations (approximate LD99) are determined by the following method: stock solutions of the unknowns are serially diluted ½ to give 12 concentrations over a 2,048-fold range. Aliquots of each concentration(s) are applied to the wells of 96-well microtitre plates and diluted with media. […] The lowest concentration at which the compound is active is noted as the minimum inhibitory concentration (MIC). Additionally, microscopic inspection is carried out to identify any patterns of morphological change that may be consistent with a type of toxicity and therefore mode of action. Giardia spp. was utilized for this assay.

human breast MCF-7 = test: Growth inhibition of cultured cells; type: cell-based; details: human breast MCF-7
Protocol: (§1) Briefly, a range of tumour cells including mouse melanoma, human melanoma, mouse squamous cell carcinoma, human breast, human colon, human leukemia and human lung and normal human cells including normal human fibroblasts were seeded at 2-5,000 per microtitre well (96-well plate) in 10% FCS-RPMI 1640 culture medium, treated, and allowed to grow until the controls were nearly confluent (5-6 days). The wells were then washed twice with PBS, fix with ethanol for a minimum of 5 minutes and washed with water. SRB solution (50 μL of 0.4% in 1% acetic acid) was added and left at room temperature for a minimum of 15 minutes. The plate was washed rapidly with tap water and then twice with 1% acetic acid. After addition of 100 μL/well of 10 mM Tris base (unbuffered, pH>9), plates were left for a minimum of 5 minutes, then the absorbance was read at 564 nm on the ELISA reader, with a 3 second prior shaking. After subtraction of a blank (wells with no cells, absorbance typically about 0.04), growth inhibition was calculated as % of the untreated control and plotted against dose.
(§2) Briefly, a suspension of a range of tumour cells including mouse melanoma, human melanoma, mouse squamous cell carcinoma, human breast, human colon, human leukemia and human lung and normal human cells including normal human fibroblasts were seeded into round-bottom microtitre plates in 10% FCS-RPMI 1640 culture medium, treated and allowed to grow for 5-6 days. To measure cell growth, 20 μL of a combined MTS/PMS solution (Promega Cell ProliferationAssay Kit Cat #G5430) was added to each well of the 96 well assay plate. After 1-4 hours the plates were placed in the ELISA plate reader and the absorbance read at 490 nm. After subtraction of a blank (wells with no cells, absorbance typically about 0.4), growth inhibition was calculated as % of the untreated control and plotted against dose.
(§3) For growth inhibition assays, cells (2000-5000/well) were seeded in 96-well plates in duplicate, treated with drug next day and allowed to grow for a further 5-6 days. The plates were then washed in PBS (phosphate buffered saline, pH 7.2), fixed with ethanol and stained by addition of 50 μL 0.4% SRB (sulforhodamine) in 1% acetic acid. The plate was left at room temperature for a minimum of 15 minutes, then washed rapidly with tap water and then twice with 1% acetic acid. After addition of 100 μL/well of 10 mM Tris base (unbuffered, pH>9), plates were left for a minimum of 5 minutes, then the absorbance was read at 564 nm on the ELISA reader, with a 3 second prior shaking. After subtraction of a blank (wells with no cells, typically about 0.04), growth inhibition was calculated as % of the untreated control and plotted against dose.

human leukemia K562 = test: Growth inhibition of cultured cells; type: cell-based
Protocol: as §1, §2, §3

[2] = system: normal human fibroblasts (NFF); test: Growth inhibition of cultured cells; type: cell-based
Protocol: as §1, §2, §3

human melanoma MM418c5 = test: Growth inhibition of cultured cells; type: cell-based
Protocol: as §1, §2

human prostate DU145 = test: Growth inhibition of cultured cells; type: cell-based
Protocol: as §1, §2

PKC = PKC activation in cultured tumour cells (scattering and growth inhibition of MCF7); type: cell-based, human; details: defined by scattering and growth inhibition of MCF7 breast cancer cells
MM96L cell line = test: Changes in morphology of cultured cells; type: cell-based, human
MCF-7 = test: Cell scattering of cultured cells; type: cell-based, human
[3] = system: K562 leukemia, MCF-7 breast cancer, Colo-205 colon cancer and D04 and SKMel-5 melanoma; test: In vitro growth inhibition profile, sensitive versus other cell lines; type: cell-based, human
Protocol: In addition, scattering of MCF-7 and HT-29 colon tumour cells was observed, typical of PKC activators. […] Additionally, given their similarity in structure, EBI-47, EBI-59 and EBI-61 are also considered to be protein kinase C activators.
as §3, with “dose. […]” for “dose.”

[4] = weight of chemical in last well with activity, real value may be lower

Row | Compound | Ne Titre (Haemonchus contortus) | Ne LD99 (Haemonchus contortus; [4]) | Bs Titre (Bacillus subtilis) | Tr Titre (Trichophyton rubrum) | Cy Titre [1] | Cy LD99 [1] | DipH (no hatching of flies) (fly eggs) | Gi Titre (Giardia spp.) | Gi LD99 (Giardia spp.; [4]) | Concentration of EB548.LA4.61-29/32 At which growth inhibition was observed (human breast MCF-7) | Concentration of EB548.LA4.61-29/32 At which growth inhibition was observed (human leukemia K562) | Concentration of EB548.LA4.61-29/32 At which growth inhibition was observed [2] | Concentration of EB548.LA4.61-29/32 At which growth inhibition was observed (human melanoma MM418c5) | Concentration of EB548.LA4.61-29/32 At which growth inhibition was observed (human prostate DU145) | PKC activity (PKC) | DipP (no pupae formation) (fly eggs) | change in morphology of MM96L cells (MM96L cell line) | scattering of MCF-7 cells (MCF-7) | growth-inhibiting doses in sensitive cell lines lower than for other human tumour cell lines and normal human fibroblasts [3]
1 | CCC(C)C(=O)OC1C(C)C2(O)C(C3OC3(CO)C(O)C3(O)C(=O)C(C)=CC32)C2C(C)(C)C12OC(=O)C(C)CC (centres unmarked) [EBI-47, 12,13-di-(2-methylbutanoyl)-6,7-epoxy-4,5,9,12,13,20-hexahydroxy-tigliaen-3-one] | 2 | 31 µg/mL | 0/— | 0/— | 4 | 16 µg/mL | P | 2 | 31 µg/mL | 0.03 µg/mL | 0.1 µg/mL | None observed at 10 μg/mL | 0.03 µg/mL | 10 µg/mL | yes |  |  |  | 
2 | CCCCC/C=C/C=C/C=C/C(=O)OC1C(C)C2(O)C(C3OC3(CO)C(O)C3(O)C(=O)C(C)=CC32)C2C(C)(C)C12OC(=O)C(C)CC (centres unmarked) [EBI-59, 12-(dodeca-2,4,6-trienoyl)-13-(2-methylbutanoyl)-6,7-epoxy-4,5,9,12,13,20-hexahydroxy-1-tigliaen-3-one] | 0/— |  | 0/— | 0/— | 16 | 3.9 µg/mL | A/A |  |  |  |  |  |  |  | yes | A/A |  |  | 
3 | tetradecanoyl phorbol acetate [TPA, reference compound] |  |  |  |  |  |  |  |  |  |  |  |  |  |  |  |  | characteristic change to bipolar morphology; also recorded: extreme bipolar morphology | scattering | approximately 100 fold
